Assay results as given in patent publication US11760775B2, “Steroids and protein-conjugates thereof” (Regeneron Pharmaceuticals, Inc., priority 2016, dated 2023).
Where two headings read alike, the source gives them in different places.

Tests used:
[1] = tested on: glucocorticoid receptor (GR) activation in HEK293/MMTV-luc/IL-2Rγ/IL7R cells; test: IL2Rγ-ncADC bioassay, MMTV luciferase reporter in HEK293/MMTV-luc/IL2Rγ/IL7R cells; type: cell-based, human
Description: (§1) HEK293 cell line was first generated to stably express a luciferase reporter pGL4.36[luc2P/MMTV/Hygro] (Promega, #E136A), referred to herein as HEK293/MMTV-luc, and maintained in DMEM containing 10% FBS, NEAA, penicillin/streptomycin/L-glutamine, and 100 μg/mL hygromycin (complete media). […] The resulting cell line referred to herein as, HEK293/MMTV-luc/IL-2Rγ/IL7R, was maintained in complete media supplemented with 1 μg/mL puromycin, and 500m/mL G418 sulfate.
(§2) For the bioassay, HEK293/MMTV-luc or HEK293/MMTV-luc/IL2Rγ/IL7R cells were seeded onto 96-well assay plates at 10,000 cells/well in complete media and incubated at 37° C. in 5% CO2 overnight. […] The concentrations were adjusted according to drug-to-antibody ratio for ncADCs and other techniques known to those of skill in the art. One well without any test article was also included as a control.
(§3) Luciferase activity was measured after 6, 24, 48, and 72 hours of incubation in 37° C. at 5% CO2 on a Victor X instrument (Perkin Elmer). The results were analyzed using nonlinear regression (4-parameter logistics) with Prism 6 software (GraphPad) to obtain EC50 values. Fold activation was calculated by determining the ratio of the luciferase activity of each sample to that observed without any test article added

[2] = tested on: GR activation in 293/MMTV-Luc cells; test: Luciferase reporter assay in 293/MMTV-Luc cells (do not express PRLR); type: cell-based, human; settings: for GRE-Luc activation: 293/MMTV-Luc cells, 72 hours
Text: In a second example, a bioassay assessed both the efficacy of free steroids as well as any nonspecific activity by anti-PRLR-ncADCs.

[3] = tested on: GR activation in 293/PRLR/GRE-Luc cells (HEK293/9xUAS-Luc2P/pBind-GR/PRLR-HA high cells); test: GR co-activator luciferase reporter cell based assay in 293/PRLR/GRE-Luc cells; design: species or system human
Method in brief: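 EC50 was derived from a 10-point, four-parameter logistic fit of One-Glo luminescence. The reporter is driven by Gal4UAS through GR ligand-binding domain fused to Gal4 DBD in PRLR-expressing 293 cells, after ADC internalization or free steroid exposure. Activation below 10% of the free-payload maximum counts as minimal.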

[4] = tested on: glucocorticoid receptor (GR) activation in HEK293/MMTV-Luc cells; test: MMTV luciferase reporter bioassay in parental HEK293/MMTV-luc cells; type: cell-based, human; settings: 72 hrs of incubation
Description: as §1, §2, §3

[5] = tested on: GR activation in 293/GRE-Luc cells (293_PBind GR/UAS-Luc); test: Luciferase reporter assay in antigen negative 293/GRE-Luc cells; type: cell-based, human; settings: read-out: EC50 in 293/GRE-Luc; 72 hrs of incubation; antigen negative cells
[6] = 6, 24, and 48 hours of incubation
[7] = 293/PRLR/GRE-Luc cells, 72 hours

SMILES: CCCC1O[C@@H]2C[C@H]3[C@@H]4CCC5=CC(=O)C=C[C@]5(C)[C@H]4[C@@H](O)C[C@]3(C)[C@]2(C(=O)COc2ccc(N)cc2)O1 (stereo in doubt) [Compound 11-5]
- GR activation [1, 6]: partial activation
- Fold Activation ([1]; 6 hours): Partial
- Fold Activation ([1]; 24 hours): Partial
- Maximum fold activation ([1]; 24 hrs of incubation): relatively lower levels of activation compared to budesonide
- Fold Activation ([1]; 48 hours): Partial
- Fold Activation ([1]; 72 hours): Full
- GR activation ([1]; 72 hours of incubation): full activations
- EC50 ([1]; Homo sapiens, HEK293, 6 h): > 100 nM
- EC50 ([1]; Homo sapiens, HEK293, 24 h): > 100 nM
- EC50 ([1]; Homo sapiens, HEK293, 48 h): 10 to 100 nM
- EC50 ([1]; Homo sapiens, HEK293, read-out: EC50 of GR activation): 10 to 100 nM
- EC50 potency class ([1]; at 24 hours): + (+: >100 nM)
- EC50 potency class ([1]; at 48 hours): ++ (++: 10-100 nM)
- GRE-Luc activation [2]: full GRE-Luc activation
- EC50 ([2]; Homo sapiens, 72 h, read-out: EC50 of GRE-Luc activation): 10 to 100 nM
- Fold Activation [3, 7]: Full
- GRE-Luc activation [3, 7]: full GRE-Luc activation
- EC50 ([3]; Homo sapiens, HEK293, 72 h, read-out: EC50 of GRE-Luc activation): < 10 nM
- Activation in HEK293/MMTV-Luc cells [4]: showed activation

SMILES: CCCC1O[C@@H]2C[C@H]3[C@@H]4CCC5=CC(=O)C=C[C@]5(C)[C@H]4[C@@H](O)C[C@]3(C)[C@]2(C(=O)CO)O1 (stereo partly shown) [Budesonide, budesonide, reference compound]
- GRE-Luc activation [2]: full GRE-Luc activation
- GRE-Luc activation [3, 7]: full GRE-Luc activation
- EC50 ([3]; 293/PRLR/GRE-Luc cells, 72 hours, read-out: EC50): < 10 nM
- EC50 ([3]; 293/PRLR/GRE-Luc cells, 72 hours, read-out: EC50 of GRE-Luc activation): < 10 nM
- EC50 ([3]; 72 hours of incubation, read-out: HEK293/9xUAS-Luc2P/pBind-GR/PRLR-HA high cells EC50): < 10 nM
- EC50 ([3]; read-out: EC50 in 293/PRLR/GRE-Luc, 72 hrs of incubation): 5 to 10 nM
- EC50 ([3]; read-out: HEK293/9xUAS-Luc2P/pBind-GR/PRLR-HA high cells EC50): < 10 nM
- EC50 [5]: < 5 nM
- Activation in HEK293/MMTV-Luc cells [4]: showed activation
